Reference: patent US10508118B2, “Pyrimidopyrrole compounds, method for preparing the same, pharmaceutical compositions comprising the same and uses thereof” (Xiamen University, priority 2015, dated 2019)
Read-outs that look alike come from different tables or passages of the source.

How the values were obtained:
Format in all cases: cell-based
EML4-ALK-BaF3 = molecular target: T1, EML4-ALK-BaF3 (Homo sapiens, UniProt Q9UM73); test: Growth inhibition of EML4-ALK transformed BaF3 cells (MTS); conditions: EML4-ALK-BaF3 cells, 48 hours, MTS
T1 construct: expressed in transfected cells; host or cells: Ba/F3 cells; the other entry of the earlier key: EML4 (Q9HC35, Echinoderm microtubule-associated protein-like 4)
Protocol: (§1) If compounds can inhibit the activity of ALK kinase or the activity of ALK signaling pathway, they can inhibit the growth of ALK transformed Ba/F3 cells. […] The broad-spectrum toxicity of compounds can be evaluated by determining the effect of the compounds on the growth of wild type BaF3 cells.
(§2) 1) Medium: DMEM (Dulbecco's modified eagle medium) or RPMI1640 (containing 10% fetal bovine serum, 100 μg/mL ampicillin, 100 μg/mL streptomycin).)
(§3) Reagents: MTS solution (2 mg/mL MTS (3-(4,5-dimethylthiazol-2-yl)-5-(3-carboxymethoxyphenyl)-2-(4-sulfophenyl)-2H-tetrazolium, inner salt); 100 μg/mL PES ([…])).
(§4) 3) Test of compound: Transformed Ba/F3 cells (EML4-ALK-BaF3, EML4-ALK(L1196M)-BaF3, NPM-ALK-BaF3) (2×10^4/well) were distributed into 96-well plates, with volume of cell sap of 90 μL, 10 μL of compounds in gradient concentration (the highest concentration 10 was μM, followed by 1/3 step by step dilution, a total of 8 concentrations were set, the system contained 0.1% DMSO (dimethyl sulfoxide)). The cell plates mixed with compounds were cultured in a cell incubator (37° C.; 5% CO2) for 48 hours, and the added 20 μL of MTS reaction solution, mixed and incubated in cell incubator (37° C.; 5% CO2) for 1-4 hours. The OD value at a wavelength of 490 nm was measured using eliasa (VARIOSKAN FLASH, Thermo). Three parallels were set up for each group, with a final concentration of 0.1% DMSO as negative control, and with medium without cells and compounds as blank control.
(§5) 4) Calculation of IC50 value: the semi inhibitory concentration of the compound acting on the cells was calculated using GradPad Prism 5 software according to the cell inhibitory rate measured.

EML4-ALK (L1196M)-BaF3 = molecular target: T2, EML4-ALK (L1196M)-BaF3 (Homo sapiens, UniProt Q9UM73, L1196M); test: Growth inhibition of EML4-ALK (L1196M) transformed BaF3 cells (MTS); conditions: 48 hours
T2 construct: expressed in transfected cells; host or cells: Ba/F3 cells; the other entry of the earlier key: EML4 (Q9HC35, Echinoderm microtubule-associated protein-like 4)
Protocol: as §1, §2, §3, §4, §5

NPM-ALK-BaF3 = molecular target: T3, NPM-ALK-BaF3 (Homo sapiens, UniProt Q9UM73); test: Growth inhibition of NPM-ALK transformed BaF3 cells (MTS); conditions: 48 hours
T3 construct: expressed in transfected cells; host or cells: Ba/F3 cells; the other entry of the earlier key: NPM1 (P06748, Nucleophosmin)
Protocol: (§6) The activity of compounds against ALK kinase was evaluated by inhibiting the growth of cellular ALK kinase EML4-ALK-BaF3, EML4-ALK (L1196M)-BaF3, NPM-ALK-BaF3, and wild type BaF3 (Proc. Natl. Acad. Sci. USA., 2006, 103, 3153-8.) The growth of cellular ALK kinase EML4-ALK-BaF3, EML4-ALK(L1196M)-BaF3, and NPM-ALK-BaF3 depends on their kinase activity. If compounds can inhibit the activity of ALK kinase or the activity of ALK signaling pathway, they can inhibit the growth of ALK transformed Ba/F3 cells. […] The broad-spectrum toxicity of compounds can be evaluated by determining the effect of the compounds on the growth of wild type BaF3 cells.
as §2, §3
as §4, with “control. The inhibition rate of cell growth was calculated by the following formula: Cell inhibition rate %=1−(OD experimental group−OD blank group)/(OD negative group−OD blank group)*100%” for “control.”
as §5

wild type BaF3 = test: Growth inhibition of wild type BaF3 cells (broad-spectrum toxicity); conditions: Mus musculus, BaF3, 48 h, MTS
Protocol: as §6, §2, §3
as §4, with “control. The inhibition rate of cell growth was calculated by the following formula: Cell inhibition rate %=1−(OD experimental group−OD blank group)/(OD negative group−OD blank group)*100%” for “control.”
as §5

[1] = Table 11, read-out: EML4-ALK (L1196M) (IC50 nM)
[2] = Table 12, read-out: L1196M (IC50 nM)

Compound	IC50 (EML4-ALK-BaF3; Table 11) [nM]	IC50 (EML4-ALK (L1196M)-BaF3; [1]) [nM]	IC50 (NPM-ALK-BaF3; Table 11) [nM]	IC50 (wild type BaF3; Table 11) [nM]	IC50 (EML4-ALK-BaF3; Table 12) [nM]	IC50 (EML4-ALK (L1196M)-BaF3; [2]) [nM]	IC50 (NPM-ALK-BaF3; Table 12) [nM]	IC50 (wild type BaF3; Table 12) [nM]
CCC(C)OC(=O)c1ccccc1Nc1nc(Nc2ccc(N3CCC(O)CC3)cc2)nc2cc[nH]c12 (stereo not shown) [IH-2]	> 10000	40400	> 10000	> 10000				
COC(=O)c1ccccc1Nc1nc(Nc2ccc(N3CCC(N4CCN(C)CC4)CC3)cc2OC)nc2ccn(C)c12 [IIG-2]					~3880	3730	4890	~7940
CCOc1cc(C(=O)N2CCC(N3CCN(C)CC3)CC2)ccc1Nc1nc(Nc2ccccc2S(=O)(=O)C(C)C)c2c(ccn2C)n1 [IID-7]					783	~2780	~982	~2580
COc1cc(N2CCN(C)CC2)ccc1Nc1nc(Nc2ccccc2SC(C)C)c2c(ccn2C)n1 [IIB-1]					1720	~2800	~2510	1930
COC(=O)c1ccccc1Nc1nc(Nc2ccc(N3CCC(O)CC3)cc2)nc2ccn(C)c12 [IIG-3]					4260	2790	3180	5040
CC(C)S(=O)(=O)c1ccccc1Nc1nc(Nc2cnn(C3CCN(C)CC3)c2)nc2cc[nH]c12 [ID-8]	5170	5680	> 10000	> 10000				
NS(=O)(=O)c1ccc(Nc2nc(NC3CC3)c3[nH]ccc3n2)cc1 [IS-4]	> 10000	> 10000	> 10000	> 10000				
Cc1cc(Nc2nc(Nc3ccccc3S(=O)(=O)C(C)C)c3[nH]ccc3n2)c(OC(C)C)cc1C1CCN(C)CC1 [ID-6]	1510	~2650	1020	~2840				
COC(=O)c1ccccc1Nc1nc(Nc2ccc(N3CCN(C)CC3)cc2)nc2cc[nH]c12 [IG-6]	1370	1520	1740	~3140				
CSc1ccccc1Nc1nc(Nc2ccc(N3CCN(C)CC3)cc2)nc2ccn(C)c12 [IIA-6]					644	978	536	1370
COc1cc(N2CCN(C)CC2)ccc1Nc1nc(NCc2ccccc2SC(C)C)c2c(ccn2C)n1 [IIJ-1]					~865	544	627	~911
COC(=O)c1ccccc1Oc1nc(Nc2ccc(N3CCC(N4CCN(C)CC4)CC3)cc2OC)nc2cc[nH]c12 [IV-2]	~8980	3960	~9140	~8450				
CC(C)Sc1ccccc1Nc1nc(Nc2ccc(N3CCC(O)CC3)cc2)nc2cc[nH]c12 [IB-2]	786	1740	1770	1920				
COC(=O)c1cccc(Nc2nc(Nc3ccc(N4CCC(O)CC4)cc3)nc3cc[nH]c23)c1 [II-3]	7470	6160	4910	9610				
CN1CCN(c2ccc(Nc3nc(Nc4ccccc4S(C)(=O)=O)c4[nH]ccc4n3)cc2)CC1 [IC-5]	4080	~3350	5260	4590				
COc1cc(N2CCC(N3CCN(C)CC3)CC2)ccc1Nc1nc(NCc2ccccc2SC)c2[nH]ccc2n1 [IL-2]	~2570	2000	~7720	~7840				
COc1cc(N2CCN(C)CC2)ccc1Nc1nc(Nc2ccccc2SC)c2[nH]ccc2n1 [IA-1]	1370	1800	703	~2790				

Compound	IC50 (EML4-ALK-BaF3; Table 11) [nM]	IC50 (EML4-ALK (L1196M)-BaF3; [1]) [nM]	IC50 (NPM-ALK-BaF3; Table 11) [nM]	IC50 (wild type BaF3; Table 11) [nM]	IC50 (EML4-ALK-BaF3; Table 12) [nM]	IC50 (EML4-ALK (L1196M)-BaF3; [2]) [nM]	IC50 (NPM-ALK-BaF3; Table 12) [nM]	IC50 (wild type BaF3; Table 12) [nM]
CS(=O)(=O)c1ccccc1CNc1nc(Nc2ccc(S(N)(=O)=O)cc2)nc2cc[nH]c12 [IN-4]	> 10000	> 10000	> 10000	> 10000				
COc1cc(N2CCN(C)CC2)ccc1Nc1nc(NCc2ccccc2SC)c2c(ccn2C)n1 [III-1]					~1360	1690	~2740	~2780
CN1CCN(c2ccc(Nc3nc(NCc4ccccc4S(C)(=O)=O)c4c(ccn4C)n3)cc2)CC1 [IIK-5]					1430	~2560	1880	~2870
COC(=O)c1ccccc1Nc1nc(Nc2ccc(N3CCOCC3)cc2)nc2cc[nH]c12 [IG-5]	7800	> 10000	> 10000	> 10000				
COC(=O)c1ccccc1Nc1nc(Nc2ccc(N3CCC(O)CC3)nc2)nc2cc[nH]c12 [IG-18]	4680	4370	8760	> 10000				
COc1cc(N2CCN(C)CC2)ccc1Nc1nc(NCc2ccccc2S(C)(=O)=O)c2[nH]ccc2n1 [IN-1]	> 10000	> 10000	> 10000	> 10000				
COC(=O)c1ccccc1Nc1nc(Nc2ccc(N3CCN(C)CC3)cc2OC)nc2ccn(C)c12 [IIG-1]					2370	3440	4870	5170
CC(C)S(=O)(=O)c1ccccc1CNc1nc(Nc2ccc(N3CCC(O)CC3)cc2)nc2cc[nH]c12 [IO-3]	> 10000	> 10000	> 10000	> 10000				
COc1cc(C(=O)N2CCC(N3CCN(C)CC3)CC2)ccc1Nc1nc(NCc2ccccc2S(C)(=O)=O)c2c(ccn2C)n1 [IIK-6]					> 10000	> 10000	> 10000	> 10000
CS(=O)(=O)c1ccccc1Nc1nc(Nc2ccc(N3CCC(O)CC3)cc2)nc2cc[nH]c12 [IC-3]	> 10000	> 10000	> 10000	> 10000				
CC(C)S(=O)(=O)c1ccccc1Nc1nc(Nc2ccc(N3CCN(C)CC3)cc2)nc2ccn(C)c12 [IID-5]					~1130	~1120	~2580	~7940
CCOc1cc(C(=O)N2CCC(N3CCN(C)CC3)CC2)ccc1Nc1nc(Nc2ccccc2SC(C)C)c2c(ccn2C)n1 [IIB-5]					~2720	~2780	~1370	~2870
COc1cc(N2CCC(N3CCN(C)CC3)CC2)ccc1Nc1nc(Nc2ccccc2SC(C)C)c2c(ccn2C)n1 [IIB-2]					~949	~853	~940	606
CC(C)S(=O)(=O)c1ccccc1Nc1nc(Nc2ccc(N3CCC(O)CC3)cc2)nc2cc[nH]c12 [ID-4]	2860	6150	~8930	> 10000				
CC(C)S(=O)(=O)c1ccccc1CNc1nc(Nc2ccc(N3CCN(C)CC3)cc2)nc2cc[nH]c12 [IO-5]	4870	5200	5030	1910				
COc1cc(N2CCC(N3CCN(C)CC3)CC2)ccc1Nc1nc(NC2CC2)c2[nH]ccc2n1 [IS-2]	> 10000	5030	> 10000	> 10000				
COc1cc(N2CCN(C)CC2)ccc1Nc1nc(NC2CC2)c2[nH]ccc2n1 [IS-1]	~2550	1700	1790	5330				
